Laboratory results taken from patent US7498292B2, “Combinatorial libraries of autoinducer analogs, autoinducer agonists and antagonists, and methods of use thereof” (The Research Foundation of State University of New York, priority 2002, dated 2009).
Entries after “also recorded” stand apart in the source; their conditions may differ. Like-named read-outs stand apart in the source and are kept apart here.

Columns and labels:
[1] = biological target: T1, LasR (Pseudomonas aeruginosa, UniProt P25084); assay: lasI-gfp reporter agonist assay, PAO-JP2 (plasI-LVAgfp); type: cell-based, P. aeruginosa; conditions: for agonist activity (induction of lasI-gfp reporter): PAO-JP2 (plasI-LVAgfp), compounds made in solution phase, increasing concentrations (1, 100, 400 μM)
T1 construct: endogenous in cells; host or cells: P. aeruginosa PAO-JP2 (lasI, rhlI) harboring plasI-LVAgfp
From the text: Since this strain lacks the ability to produce natural AIs due to disruption of both AI synthase genes, activation of LasR relies on the addition of exogenous AI1. Expression of gfp (encoding green fluorescent protein) is under control of the LasR-AI1 inducible lasI promoter, allowing rapid screening for LasR agonists by measuring the level of GFP expression in their presence.
(§1) P. aeruginosa strain PAO-JP2 (lasI, rhlI) (Rahme et al., Science 268:1899-1902 (1995), which is hereby incorporated by reference in its entirety) harboring plasI-LVAgfp (Pearson et al., Proc. Natl Acad. Sci. USA 91:197-201 (1994), which is hereby incorporated by reference in its entirety) was grown at 37° C. in LB with 300 μg/ml carbenicillin. For agonist assays, an overnight culture was diluted to an OD600 of 0.1 and transferred to wells of a 96-well plate on which test compounds had previously been added and dried. The final concentration of each analog tested was roughly 400 μM, although this is an overestimate due to purity issues. Cells were then incubated for 6 hours at 37° C. with vigorous shaking. GFP expression was detected with a Molecular Imager (BioRad) (488 nm excitation and 695 nm bandpass filter) and quantified with ImageQuant software. The OD600 of cultures was determined to normalize GFP expression to cell density.
(§2) Reporter strains were grown overnight in LB plus 300 μg/ml carbenicillin at 37° C. and diluted to an OD600 of 0.1. Following an incubation of 1 hour, 200 μl of cell culture was added to individual wells of a 96 well plate containing appropriate amount of test compound(s). Plates were incubated for 6 hours and then scanned for fluorescence emission with a Molecular Imager (488 nm excitation and 695 nm bandpass filter). Fluorescence was quantified with ImageQuant software.

[2] = system: RhlR; assay: rhlI-gfp reporter antagonist assay, PAO-JP2 (prhlI-LVAgfp); type: cell-based, P. aeruginosa; conditions: competing against 1 μM AI1 and 10 μM AI2
Method: Each compound in the library was tested for antagonist activity using the same reporter strain, PAO-JP2 (plasI-LVAgfp) (de Kievit et al., Appl. Environ. Microbiol. 67:865-1873 (2001), which is hereby incorporated by reference in its entirety) to find compounds that could compete against AI1 and reduce GFP expression. The methods were the same as described in Example 2 (GFP Reporter Assay), except that 1 μM AI1 was added to each well in combination with the library compound. The fluorescence/OD600 of each compound competing against AI1 was reported relative to the fluorescence/OD600 of the positive control of AI1 alone, which was set to 1. When strain PAO-JP2 (prhlI-LVAgfp) was used, the positive control was 1 μM AI1 and 10 μM AI2.
3- oxo-C12-D10 was synthesized in solution phase, where the natural side chain was coupled with D10 and purified by chromatography. To determine if the same structural motif can be applied to inhibition of the RhlR-AI2 interaction, C4-D10 was also synthesized. Assays were performed with both the lasI-gfp reporter PAO-JP2 (plasI-LVAgfp) and an RhlR-AI2 controlled rhlI-gfp reporter, PAO-JP2 (prhlI-LVAgfp) (FIGS. 10A-C) (de Kievit et al., Appl. Environ. Microbiol. 67:865-1873 (2001), which is hereby incorporated by reference in its entirety).
as §2
Next the ability of 2 and 3 to inhibit the rhlI-gfp reporter strain PAO-JP2 (prhlI-LVAgfp) was tested, since this expression is also AI1-dependent.

[3] = system: lac promoter; assay: GFP expression from lac promoter, PAO-JP2 (pTdK-GFP) (specificity control); type: cell-based, P. aeruginosa; conditions: lasI promoter replaced with a lac promoter
[4] = biological target: T1, LasR; assay: lasB-lacZ reporter assay, E. coli MG4 (pKDT37); type: cell-based, P. aeruginosa
Method: E. coli strain MG4 (pKDT37) was grown overnight in Supplemented A media with 100 μg/mL ampicillin at 30° C. and diluted 1:100 in the same media. 1 mL of this culture was added to a test tube containing AI1 or 3-oxo-C12-D12 that had been previously aliquoted and dried. Following a 6 hour incubation at 30° C., β-galactosidase activity was determined using standard methods (Platt et al., Assays of the lac operon Enzymes In: Experiments in Molecular Genetics, Cold Spring Harbor Laboratory Press, Cold Spring Harbor, N.Y., pp. 352-355 (1972), which is hereby incorporated by reference in its entirety).
One of the new agonist structures identified from the library, D12, is 2-aminocyclohexanol (FIG. 5B). […] 3-oxo-C12-D12, containing the natural side chain, was synthesized in solution phase, and tested with both the lasI-gfp reporter as well as a lasB-lacZ reporter in Escherichia coli. E. coli strain MG4 harboring plasmid pKDT37 expresses lasR and contains a lacZ reporter gene controlled by a LasR-AI1 inducible lasB promoter (Passador et al., J. Bacteriol. 178:5995-6000 (1996), which is hereby incorporated by reference in its entirety). […] It also provides strong evidence that the agonist activity in P. aeruginosa is LasR dependent.

[5] = biological target: T2, RhlR (Pseudomonas aeruginosa, UniProt P54292); type: cell-based, P. aeruginosa; conditions: for AI2 agonist activity (induction of rhlI-gfp reporter): in the presence of 1 μM AI1, 10, 100, 400 μM analog
T2 construct: an RhlR-AI2 controlled rhlI-gfp reporter, PAO-JP2 (prhlI-LVAgfp); endogenous in cells; host or cells: P. aeruginosa PAO-JP2 (prhlI-LVAgfp)
Method: Thus, it was hypothesized that a 5- or 6-membered ring with a keto or hydroxyl group (or other hydrogen bond acceptor) adjacent to the amine is sufficient for both binding and activation of LasR. To test this hypothesis, the series of molecules shown in FIG. 13 (compounds 14) was synthesized.
as §2
The C4 compounds (A12 and 5-8) were analyzed for agonist activity using PAO-JP2 (prhlI-LVAgfp) (FIGS. 14C and D). Induction of GFP expression in this reporter requires addition of both AI1 and AI2. The AI2 control and agonist assays, therefore, were performed in the presence of 1 μM AI1 and increasing concentrations of AI2 or analog (FIGS. 14C and D).

[6] = biological target: T1, LasR; assay: lasI-gfp reporter antagonist (competition against AI1) assay, PAO-JP2 (plasI-LVAgfp); type: cell-based, P. aeruginosa; conditions: for reduction of GFP expression (lasI-gfp): 1 μM AI1
Method: as §1
The methods were the same as described in Example 2 (GFP Reporter Assay), except that 1 μM AI1 was added to each well in combination with the library compound. The fluorescence/OD600 of each compound competing against AI1 was reported relative to the fluorescence/OD600 of the positive control of AI1 alone, which was set to 1. When strain PAO-JP2 (prhlI-LVAgfp) was used, the positive control was 1 μM AI1 and 10 μM AI2. Eight compounds that inhibited reporter gene expression by greater than 50% were identified (see, e.g., FIG. 6).
as §2

[7] = system: Elastase B; assay: elastase (Elastin Congo Red) assay, strain PAO-JP2; type: cell-based, P. aeruginosa PAO-JP2; conditions: PAO-JP2, 10-100 μM compound, competing against 5 μM AI1 and 10 μM AI2
Method: (§3) Pyocyanin, elastase, and biofilm were assayed as previously described (Smith et al., Chem. Biol. 10:81-89 (2003), which is hereby incorporated by reference in its entirety). Elastase activity produced by P. aeruginosa in the presence of AIs and competing 3-oxo-C12-D10 was determined by measuring breakdown of the substrate Elastin Congo Red.
(§4) For the elastase B assay, cells (PAO-JP2) were grown overnight in PTSB media (5% Peptone, 0.1% Tryptic Soy Broth) at 37° C., washed and diluted to an OD600 of 0.05, grown to mid-log phase, washed again, and re-suspended to an OD600 of 0.05. The culture was then added to test tubes containing test compound(s) and grown for 6 hours. Elastase B activity was quantified by incubation of 100 μl of filtered culture supernatant with 5 mg Elastin Congo Red substrate and 1 ml of 10 mM Tris pH 7.2, 1 mM CaCl2 for 6 hours at 37° C. with agitation. Elastase B activity is represented by the OD495 of the enzyme assay following reaction quenching with EDTA and centrifugation to remove unreacted substrate, divided by the OD600 of the cell culture. The same assay was run with strain PAO-1, however no exogenous autoinducers were added.

[8] = system: Elastase B; assay: elastase (Elastin Congo Red) assay, wild type strain PAO1; type: cell-based, P. aeruginosa PAO1; conditions: wild type PAO1, no exogenous autoinducers
Method: as §3, §4

[9] = system: pyocyanin; assay: pyocyanin assay, strain PAO-JP2; type: cell-based, P. aeruginosa PAO-JP2; conditions: PAO-JP2, 25 μM each of AI1 and AI2, 18 hours
Method: (§5) For the pyocyanin assay, cells were grown overnight in LB then washed in fresh media and diluted to an OD600 of 0.05. This culture was grown for 3-4 hours to mid-log phase (OD600 of 0.3-0.5), then diluted to an OD600 of 0.05, and aliquoted to test tubes containing an appropriate amount of test compound(s). Following 18 hours of growth, pyocyanin was extracted from filtered culture supernatants and quantified using standard methods (Essar et al., J. Bacteriol. 172:884-900 (1990), which is hereby incorporated by reference in its entirety).

[10] = system: pyocyanin; assay: pyocyanin assay, wild type strain PAO1; type: cell-based, P. aeruginosa PAO1; conditions: wild type PAO1, no AIs added
Method: as §5

[11] = system: PAO-JP2 (pTdK-GFP) biofilm; assay: static biofilm assay, PAO-JP2 (pTdK-GFP); type: cell-based, P. aeruginosa; conditions: PAO-JP2 (pTdK-GFP) with exogenous AIs, 24-hour static assay
Method: (§6) Compound 3 was tested for its effect on biofilm development in a 24-hour assay that looks at the early stages of biofilm formation. […] Cultures were grown at 37° C. with shaking for 30 minutes, and then allowed to sit at 37° C. for an additional 23.5 hours. Coverslips were then rinsed and placed on slides for visualization using an MRC1024 Laser Scanning Microscope (BioRad) with a Nikon Fluor-60X oil emersion objective lens (NA=1.4), 488 nm Argon Laser and OG515 filter.

[12] = system: PAO1 (pTdK-GFP) biofilm; assay: static biofilm assay, PAO1 (pTdK-GFP); type: cell-based, P. aeruginosa
Method: as §6
The same assay was run with strain PAO-1 (pTdK-GFP), and no exogenous autoinducers were added. […] The above results provide additional evidence that compound 3 interferes with QS signaling and reduces the production of important virulence factors.

T2 sequence (P54292 whole entry): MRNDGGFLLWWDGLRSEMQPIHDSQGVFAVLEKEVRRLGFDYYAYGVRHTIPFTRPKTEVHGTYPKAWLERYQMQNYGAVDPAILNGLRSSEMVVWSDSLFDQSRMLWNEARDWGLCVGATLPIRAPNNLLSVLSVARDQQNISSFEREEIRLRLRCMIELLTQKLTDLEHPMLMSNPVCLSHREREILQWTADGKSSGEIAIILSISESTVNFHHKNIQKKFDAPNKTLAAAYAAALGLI
T1 sequence (P25084 whole entry): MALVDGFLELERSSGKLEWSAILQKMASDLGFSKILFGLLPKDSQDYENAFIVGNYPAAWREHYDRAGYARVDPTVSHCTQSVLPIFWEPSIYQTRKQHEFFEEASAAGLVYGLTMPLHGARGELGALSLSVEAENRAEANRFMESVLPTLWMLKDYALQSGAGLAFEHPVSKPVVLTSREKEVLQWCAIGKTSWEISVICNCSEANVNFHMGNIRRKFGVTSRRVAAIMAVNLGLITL

CCCCCCCCCC(=O)CC(=O)N[C@@H]1CCC[C@H]1O (relative stereo) [Compound 2, N-(trans-2-hydroxycyclopentyl)-3-oxododecanamide]
agonist activity (induction of lasI-gfp reporter) [1]: nearly unable to induce the reporter
antagonist activity on rhlI-gfp reporter [2]: no antagonist activity
inhibition of GFP expression from lac promoter [3]: inability to inhibit GFP expression

CCCCCCCCCC(=O)CC(=O)N[C@@H]1CCCC[C@H]1O (relative stereo) [Compound 4, N-(trans-2-hydroxycyclohexyl)-3-oxododecanamide]
agonist activity (induction of lasI-gfp reporter) [1]: strong agonist activity; also recorded: strongest agonist
agonist activity (induction of lasI-gfp reporter) ([1]; listed as 3-oxo-C12-D12): activated
GFP induction, fold less than AI1 ([1]; at 1 μM): 2 fold
GFP induction compared with AI1 ([1]; at higher concentrations (100, 400 μM)): comparable to AI1
lasB-lacZ reporter activation (beta-galactosidase activity) ([4]; E. coli MG4 (pKDT37), 6 hour incubation): activated
LasR inducing activity compared with natural AI1 ([4]; lasI-gfp and lasB-lacZ reporters (FIG. 9)): comparable to the natural AI1

CCCC(=O)N[C@@H]1CCC[C@H]1O (relative stereo) [Compound 6, N-(trans-2-hydroxy)cyclopentylbutanamide]
antagonist activity on rhlI-gfp reporter [2]: no inhibition
AI2 agonist activity (induction of rhlI-gfp reporter) [5]: no agonist activity
AI2 agonist activity (induction of rhlI-gfp reporter) ([5]; listed as C4-(2-aminocylcopentanol)): could not activate RhlR

CCCC(=O)N[C@@H]1CCCC[C@H]1O (relative stereo) [Compound 8, N-(trans-2-hydroxy)cyclohexylbutanamide]
GFP expression (rhlI-gfp) ([5]; 400 μM analog, 1 μM AI1): moderate GFP expression
AI2 agonist activity (induction of rhlI-gfp reporter) [5]: very little AI2 agonist activity

CCCCCCCCCC(=O)CC(=O)Nc1ccccc1O [3-oxo-C12-D10]
las circuit inhibition, comparison of potency [6]: more potent than 3
reduction of GFP expression (lasI-gfp) ([6]; 10 μM compound): approximately 60%
reduction of GFP expression (lasI-gfp) ([6]; 100 μM compound): ~90%
inhibition of GFP expression (rhlI-gfp) ([2]; 50 μM compound): more than 80%
reduction of elastase activity [7]: approximately 50%
effect on elastase activity [8]: reduced elastase activity
effect on pyocyanin production [9]: not able to interfere with pyocyanin production
effect on pyocyanin production [10]: not able to interfere with pyocyanin production
effect on biofilm formation [11]: slightly enhanced rather than inhibited
effect on biofilm morphology ([12]; wild type PAO1): fluffy
effect on biofilm formation ([12]; wild type PAO1, no exogenous autoinducers): did not interfere with biofilm formation

CCCCCCCCCC(=O)CC(=O)NC1CCCC1=O (stereo not shown) [Compound 1, N-(2-oxocyclopentyl)-3-oxododecanamide]
agonist activity (induction of lasI-gfp reporter) [1]: able to induce the reporter only at a very high concentration; also recorded: weak agonist

CCCC(=O)NC1CCCC1=O (stereo not shown) [Compound 5, N-2-oxocyclopentylbutanamide]
AI2 agonist activity (induction of rhlI-gfp reporter) [5]: strong agonist activity

CCCC(=O)NC1CCCCC1=O (stereo not shown) [Compound 7, N-2-oxocyclohexylbutanamide]
AI2 agonist activity (induction of rhlI-gfp reporter) [5]: strong agonist activity
